Source: US20170216360A1, “METHODS AND COMPOSITIONS FOR IMPROVING HOMING OF CELLS INCLUDING MESENCHYMAL STEM CELLS” (SANOFI, priority 2014, published 2017)
Where a name gives a salt, the structure may show the parent alone.

How the values were obtained:
[1] = tested on: human mesenchymal stem cells; assay: In vitro functional firm adhesion assay of cells (Table 3, coating not stated); type: cell-based; design: key to Result, in vitro Firm Adhesion: NA = negative activity result; A = positive activity result; conditions: for Firm adhesion, Percent increase: relative to untreated and/or negative control MSCs
Protocol: (§1) Cell adhesion experiments were performed using Bioflux1000 (FluxionBio), allowing accurate control over shear flow. A special 48-well plate was used, in which a microfluidic channel (350 μm×70 μm) connects each pair of adjacent wells (termed inlet and outlet wells). The plate was placed under vacuum and the channels were coated from the inlet with recombinant human E-selectin (5 μg/mL) or ICAM-1 (5 μg/mL) and incubated at 37° C. for 1 h. Prior to introducing the cells into the channel, a wash with PBS−/− from the outlet well was performed for 5 min. Compound-pretreated MSCs were introduced into the channel, followed by attachment period of 2 minutes (no flow applied during the attachment period). Attached cells were then subjected to increasing shear flow, ranging from 0.25 dynes/cm^2 for up to 10 dynes/cm^2. Images were acquired using the Montage software and cell adhesion to the coated channels following subjection to shear flow was examined. See also disclosure elsewhere herein.
1. Obtain preferred channel coating (protein/cell monolayer). 2. Prepare cell suspension (same concentrations detailed above for different cell types). 3. Add 50 μl of cell suspension to outlet well. 4. Introduce cells into channel by applying shear force of 2 dynes/cm^2 (cells should be observed within 10-15 sec flowing from outlet to inlet). 5. Once cells are observed in the channel, stop the flow and allow the introduced cells to sit for different time periods ranging from 30 seconds to 5 minutes. 6. Following this settling period, apply shear force starting from 0.5 dynes/cm^2 up to 10 dynes/cm^2 and acquire videos using stream acquisition. 7. Cell quantification is then performed using the Montage software—percentage of cells adhered, rolled or washed away after applying shear flow should be quantified.

MSC secretome = assay: Secretomic analysis of small molecule-primed MSCs (Bio-plex immunoassays); type: cell-based, human; conditions: for MSC secretome changes, result in words: 3 μM for 24 hours
Protocol: A single batch of human MSCs (#7F3915) was used for all of these experiments. Cells were seeded at 25,000 cells/well in a 12-well microplate. The following day, cells were treated with the selected compound (3 μM) or DMSO (as control). After 24 hours of treatment, secretomic samples were collected, centrifuged and frozen. Secretomes of MSCs were assayed for cytokines, chemokines and growth factors using Bio-plex human 21-plex and 27-plex immunoassay kits (Bio-Rad), according to the manufacturer's instructions. The 27-plex and 21-plex panels consisted of the following analytes: IL-1alpha, IL-1beta, IL-1Ralpha, IL-2, IL-3, IL-4, IL-5, IL-6, IL-7, IL-8, IL-9, IL-10, IL12p40, IL12p70, IL-13, IL-15, IL-17, IL-18, CTACK, GROalpha, HGF, IFN-alpha2, LIF, MCP-1, MCP-3, MIF, MIG, beta-NGF, SCF, SCGF-beta, SDF-1alpha, TNF-alpha, TNF-beta, TRAIL, Eotaxin, FGF-2, G-CSF, GM-CSF, IFN-gamma, IP-10, MIP-1alpha, PDGF-bb, RANTES and VEGF. A standard range of 0.2 to 3,200 pg/mL was used. Samples and controls were run in triplicate, standards and blanks in duplicate. Error bars represent standard deviation (3 independent experiments).
Analysis of the secretome of MSCs was conducted upon pretreatment of MSCs with compound 1929 for 24 h. In this experiment, the MSCs were from donor 318006 (BM318006 P7). The mean and standard deviation values of secretome analytes were measured in pg/ml.

[2] = tested on: MSC firm adhesion to ICAM-1-coated surface; assay: ICAM-1 firm adhesion assay under shear flow, with antibody blocking; type: cell-based, human
Protocol: as §1
Pre-confluent MSCs were incubated for 24 hours with the indicated small molecules (3 μM). MSCs were than detached, washed and incubated for 30 minutes with an antibody reagent. The following antibodies are used: anti-human CD11a (clone: HI111), anti-human CD90 (clone: MAB2067), mouse anti-human CD11a (clone: TS1/22), and mouse IgG1 isotype control. Cells were then introduced into the channel and given 2 minutes to adhere before being subjected to increasing shear flow for a firm adhesion assay on a microfluidic channel coated with E-selectin or ICAM-1.

MSCs = assay: Cell viability assay, XTT; type: cell-based, human
Protocol: Pre-confluent MSCs were incubated with Ro-31-8425 at the indicated concentrations for 24 h or 72 h and cell viability was assessed via an XTT assay according to manufacturer's instructions (ATCC).
MSCs were pretreated with Ro-31-8425 for 24 h or 72 h, followed by quantification of MSC viability via XTT. (Y axis presents the percentage of viable cells compared to untreated control (cells incubated with 10% FBS-supplemented MEMa media), error bars represent standard deviation, n=3).

[3] = tested on: CD11a surface expression on MSCs; assay: CyTOF analysis of CD11a expression levels on MSCs; type: cell-based, human
Protocol: To further confirm the screening results, the surface expression of CD11a was also examined by Time of Flight Mass Cytometry (CyTOF2, DVS Sciences) (Newell et al., 2013, Nat Biotechnol. 31(7):623-9). MSCs were treated with Ro-31-8425 as indicated and sample preparation was performed per manufacturer's instructions with slight modifications. Briefly, the harvested MSC pellet was first resuspended with Intercalator-103Rh solution (1 μM) in PBS to identify viable cells, then washed twice with MaxPar cell staining buffer and stained with 100 μL antibody cocktail (human Nd142-CD11a and Tb159-CD90, 1:200 dilution in staining buffer) for 30 min at room temperature. After two washes, the cells were further stained with 125 nM MaxPar Intercalator-Ir in MaxPar Fix and Perm buffer for 1-2 h with gentle shaking. Finally the fixed cells were thoroughly washed with ultrapure H2O 2O for three times (1000 g, 5 min each), resuspended in 300 μL H2O and filtered through a 40 μm Falcon cell strainer (Corning) prior to CyTOF data acquisition. The CyTOF data was analyzed with Cytobank on-line data analysis platform (website www cytobank.org).

CCc1c2c(nc3ccc(OC(=O)N4CCC(N5CCCCC5)CC4)cc13)-c1cc3c(c(=O)n1C2)COC(=O)[C@]3(O)CC [Compound 1927, reference compound]
Firm adhesion, Percent increase [1]: 22% | MSC secretome changes, result in words (MSC secretome): no secretome changes

Cn1cc(C2=C(c3c4n(c5ccccc35)CCC(CN)C4)C(=O)NC2=O)c2ccccc21 (centres unmarked) [Compound 1929, 3-(8-aminomethyl-6,7,8,9-tetrahydro-pyrido[1,2-a]indol-10-yl)-4-(1-methyl-1H-indol-3-yl)-pyrrole-2,5-dione hydrochloride]
CD11a+ part of the induced ICAM-1 adhering population ([2]; 3 μM for 24 h): approximately 7% | Increase in MSC firm adhesion to ICAM-1-coated substrate compared to vehicle-treated MSCs ([2]; 3 μM for 24 h): > 3 fold | New MSC sub-population with induced ICAM-1 firm adhesion, share of entire population ([2]; 3 μM for 24 h): 68% | Part expressing other ICAM-1-binding domains ([2]; 3 μM for 24 h): 61% | Adhered cells on ICAM-1-coated surface before CD11a blocking ([2]; pretreated MSC): 90% | Adhered cells on ICAM-1-coated surface following CD11a blocking ([2]; pretreated MSC, CD11a blocking Ab): 50% | Result, in vitro Firm Adhesion ([1]; pretreated huMSCs): A | Firm adhesion, Percent increase ([1]; hydrochloride): 88% | MSC viability (MSCs; 0.25 to 4 μM, 24 h pretreatment): did not significantly compromise cell viability | Concentration levels at which toxicity to MSCs was seen (MSCs; 72 h pretreatment): greater than 4 μM | MSC secretome changes, result in words (MSC secretome): did not substantially alter | Mean of [IFN-g] (MSC secretome; 3 μM, 24 h, MSC donor 318006): 14.9 pg/mL | Mean of [IL-6] (MSC secretome; 3 μM, 24 h, MSC donor 318006): 333.5 pg/mL | Mean of [IL-8] (MSC secretome; 3 μM, 24 h, MSC donor 318006): 31.1 pg/mL | Mean of [IL-12p70] (MSC secretome; 3 μM, 24 h, MSC donor 318006): 13.9 pg/mL | Mean of [MCP-1] (MSC secretome; 3 μM, 24 h, MSC donor 318006): 22.5 pg/mL | Mean of [VEGF] (MSC secretome; 3 μM, 24 h, MSC donor 318006): 486.8 pg/mL | IL-6 level secreted by MSC (MSC secretome; 3 micromolar for 24 hours): downregulation | Fold change of analyte VEGF upon pretreatment (vs. vehicle control) (MSC secretome; MSC secretome): 0.75 +/− 0.26 | Time over which the percentage of CD11a-positive MSCs was stable ([3]; 3 μM for 24 h): at least 4 days | Percentage of CD11a-positive MSCs ([3]; 0.1, 1, 3 and 10 μM for 24 hours): dose-dependent increase
